Experimental data from PubChem BioAssay (NCI).
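Grown in 96-well plates, cells were treated for 48 hours with each compound at five concentrations. Insufficient inhibition: endpoint recorded as highest concentration tested. Definition used: TGI = concentration required for complete inhibition of growth.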

Assays:
Assay in all cases: growth of human tumour cells (NCI), 48 h
SNB-75 CNS = system: SNB-75 CNS
OVCAR-5 ovarian = system: OVCAR-5 ovarian
HCC-2998 colon = system: HCC-2998 colon
HL-60(TB) leukemia = system: HL-60(TB) leukemia
OVCAR-3 ovarian = system: OVCAR-3 ovarian
TK-10 renal = system: TK-10 renal
OVCAR-4 ovarian = system: OVCAR-4 ovarian
K-562 leukemia = system: K-562 leukemia
IGROV1 ovarian = system: IGROV1 ovarian
SW-620 colon = system: SW-620 colon
SK-OV-3 ovarian = system: SK-OV-3 ovarian
UACC-257 melanoma = system: UACC-257 melanoma
HCT-116 colon = system: HCT-116 colon
HT29 colon = system: HT29 colon
RPMI-8226 leukemia = system: RPMI-8226 leukemia
PC-3 prostate = system: PC-3 prostate
SN12C renal = system: SN12C renal
MDA-N = system: MDA-N
HCT-15 colon = system: HCT-15 colon
SK-MEL-5 melanoma = system: SK-MEL-5 melanoma
CCRF-CEM leukemia = system: CCRF-CEM leukemia
NCI-H460 lung = system: NCI-H460 lung
RXF 393 renal = system: RXF 393 renal
SNB-19 CNS = system: SNB-19 CNS
UACC-62 melanoma = system: UACC-62 melanoma
NCI-H226 lung = system: NCI-H226 lung
OVCAR-8 ovarian = system: OVCAR-8 ovarian
786-0 renal = system: 786-0 renal
MCF7 breast = system: MCF7 breast
COLO 205 colon = system: COLO 205 colon
NCI-H23 lung = system: NCI-H23 lung
ACHN renal = system: ACHN renal
MDA-MB-231 breast = system: MDA-MB-231 breast
SF-268 CNS = system: SF-268 CNS
T-47D breast = system: T-47D breast
LOX IMVI melanoma = system: LOX IMVI melanoma
BT-549 breast = system: BT-549 breast
SF-295 CNS = system: SF-295 CNS
DU-145 prostate = system: DU-145 prostate
KM12 colon = system: KM12 colon
SF-539 CNS = system: SF-539 CNS
UO-31 renal = system: UO-31 renal
A498 renal = system: A498 renal
SR leukemia = system: SR leukemia
NCI-H522 lung = system: NCI-H522 lung
SK-MEL-28 melanoma = system: SK-MEL-28 melanoma
HS 578T breast = system: HS 578T breast
U251 CNS = system: U251 CNS
MOLT-4 leukemia = system: MOLT-4 leukemia
A549 NSCLC = system: A549 NSCLC
CAKI-1 renal = system: CAKI-1 renal
HOP-92 NSCLC = system: HOP-92 NSCLC
HOP-62 NSCLC = system: HOP-62 NSCLC
MDA-MB-435 = system: MDA-MB-435
NCI/ADR-RES ovarian = system: NCI/ADR-RES ovarian
MALME-3M melanoma = system: MALME-3M melanoma
EKVX NSCLC = system: EKVX NSCLC
M14 melanoma = system: M14 melanoma
SK-MEL-2 melanoma = system: SK-MEL-2 melanoma

Measured: TGI

C=CCNC(=O)CN(CC(=O)O)C1CCCCC1N(CC(=O)O)CC(=O)O (stereo not drawn)
not listed: EKVX NSCLC | M14 melanoma | SK-MEL-2 melanoma
> 100 µM: all other assays above

COc1cc(C(=O)C2CC3(CCC2(O)c2cc(OC)c(OC)c(OC)c2)CC(=O)Nc2ccccc2C3=O)cc(OC)c1OC (stereo not drawn)
62.6 µM: COLO 205 colon
50.7 µM: NCI-H460 lung
57.5 µM: OVCAR-4 ovarian
78.8 µM: HL-60(TB) leukemia
81.2 µM: SK-MEL-5 melanoma
not listed: RPMI-8226 leukemia | 786-0 renal | ACHN renal | KM12 colon | NCI-H522 lung
> 100 µM: all other assays above

c1n[nH]cc1C12C3C4C5C3C1C5C42 (stereo not drawn)
not listed: NCI-H460 lung
> 100 µM: all other assays above
